From the NIST ThermoML archive (doi:10.1021/je050006+)
± gives the expanded uncertainty stated by the source.

Details: 101.33 kPa, Liquid

Structure (SMILES)	mass density (283.15 K) [kg/m3]	speed of sound (283.15 K) [m/s]	mass density (298.15 K) [kg/m3]	speed of sound (298.15 K) [m/s]	mass density (313.15 K) [kg/m3]	speed of sound (313.15 K) [m/s]
CCO [ethanol]	797.94 ± 0.45	1195.2 ± 3.2	785.12 ± 0.47	1143.3 ± 3.1	772.53 ± 0.49	1093.8 ± 3
CCCO [propan-1-ol]	811.48 ± 0.59	1257.9 ± 3.5	799.66 ± 0.6	1206 ± 3.4	787.76 ± 0.61	1155.1 ± 3.3
C=C1CCC2CC1C2(C)C (stereo not drawn) [β-pinene]	879.07 ± 0.55	1356.8 ± 3.7	866.97 ± 0.55	1298.7 ± 3.5	855.5 ± 0.56	1232.8 ± 3.4
